Laboratory results: patent EP4596574A1, “GLP-1/GCG/GIP TRIPLE-RECEPTOR AGONIST AND USE THEREOF” (Sunshine Lake Pharma Co., Ltd., priority 2022, dated 2024)
Marks after values point to notes of the source that are not given here.

How the values were obtained:
[1] = Pharmacokinetic study in rats, single subcutaneous injection; settings: male, Sprague Dawley, in vivo, sc, rat, 50 nmol/kg single subcutaneous injection, plasma
Experimental: The pharmacokinetic study of each polypeptide compound prepared in Example 1 was conducted using male Sprague Dawley rats. There were 3 male rats in each group. […] The dose was 50 nmol/kg, and a single subcutaneous injection was given (see Table 3 for specific peptide compounds). After administration, plasma was collected on the specified days and time points, and the concentration of each peptide compound in the plasma was detected by LC-MS/MS method. The pharmacokinetic parameters were obtained based on the concentration data, which were used to describe the pharmacokinetic properties of the peptide in rats after subcutaneous injection. Table 3: Summary of pharmacokinetic parameters of some triple-target peptides in rats

[2] = Glucose tolerance assessment in normal C57BL/6 mice (Example 4); format: in vivo; settings: 3 nmol/kg s.c. single dose, 24 h after administration
Outline: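 Twelve hours after a single administration, mice were fasted 12 h and then given 2 g/kg glucose i.p. Tail-vein blood glucose was measured at baseline and at 15, 30, 60 and 90 min. AUC0–90min was calculated per dose group at 24 h post-dose.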

[3] = Glucose tolerance assessment in normal C57BL/6 mice (Example 5); format: in vivo; settings: 3 nmol/kg s.c. single dose, 24 h after administration
Outline: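 Normal C57BL/6 mice given a single dose, fasted 12 h starting 12 h post-dose, then challenged with 2 g/kg glucose i.p. Tail-vein glucose measured at baseline and 15, 30, 60, 90 min. AUC0~90min calculated from the glucose–time curve per dose group.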

[4] = 15 min after 2 g/kg glucose i.p.
[5] = 30 min after 2 g/kg glucose i.p.
[6] = 60 min after 2 g/kg glucose i.p.
[7] = 90 min after 2 g/kg glucose i.p.
[8] = basal before 2 g/kg glucose i.p.
[9] = blood glucose AUC, 2 g/kg glucose i.p.

| SMILES | AUC(0-inf) [1] [ng·h/mL] | AUC(0-t) [1] [ng·h/mL] | Cmax [1] [ng/mL] | half-life ([1]; read-out: T1/2 (converted)) [h] | Tmax ([1]; read-out: Tmax) [h] | Blood glucose level (mM) 15 min [2, 4] [mM] | Blood glucose level (mM) 30 min [2, 5] [mM] | Blood glucose level (mM) 60 min [2, 6] [mM] | Blood glucose level (mM) 90 min [2, 7] [mM] | Blood glucose level (mM) 0 min [2, 8] [mM] | AUC0-90 min [2, 9] | Blood glucose level (mM) 15 min [3, 4] [mM] | Blood glucose level (mM) 30 min [3, 5] [mM] | Blood glucose level (mM) 60 min [3, 6] [mM] | Blood glucose level (mM) 90 min [3, 7] [mM] | Blood glucose level (mM) 0 min [3, 8] [mM] | AUC0-90 min [3, 9] |
| --- | --- | --- | --- | --- | --- | --- | --- | --- | --- | --- | --- | --- | --- | --- | --- | --- | --- |
| CC[C@H](C)[C@H](NC(=O)[C@H](Cc1ccccc1)NC(=O)[C@H](CCC(=O)O)NC(=O)[C@H](CCCNC(=N)N)NC(=O)[C@H](CCC(N)=O)NC(=O)[C@H](CCCNC(=N)N)NC(=O)[C@H](CCCCNC(=O)COCCOCCNC(=O)CC[C@H](NC(=O)CCCCCCCCCCCCCCCCC(=O)O)C(=O)O)NC(=O)[C@H](CCC(=O)O)NC(=O)[C@H](CC(=O)O)NC(=O)[C@H](CC(C)C)NC(=O)[C@H](CC(C)C)NC(=O)[C@@H](NC(=O)[C@H](CO)NC(=O)[C@H](Cc1ccc(O)cc1)NC(=O)[C@H](CC(=O)O)NC(=O)[C@H](CO)NC(=O)[C@@H](NC(=O)[C@](C)(Cc1ccccc1F)NC(=O)[C@@H](NC(=O)CNC(=O)[C@H](Cc1c[nH]cn1)NC(=O)C(C)(C)NC(=O)[C@@H](N)Cc1ccc(O)cc1)[C@@H](C)O)[C@@H](C)O)[C@@H](C)CC)C(=O)N[C@@H](CCC(=O)O)C(=O)N[C@@H](Cc1c[nH]c2ccccc12)C(=O)N[C@@H](CC(C)C)C(=O)N[C@@H](CC(C)C)C(=O)N[C@@H](C)C(=O)NCC(=O)NCC(=O)N1CCC[C@H]1C(=O)N[C@@H](CO)C(=O)N[C@@H](CO)C(=O)NCC(=O)N[C@@H](C)C(=O)N1CCC[C@H]1C(=O)N1CCC[C@H]1C(=O)N1CCC[C@H]1C(=O)N[C@@H](CO)C(=O)O [HEC-PT77] | 22200 ± 3840 | 22000 ± 3870 | 596 ± 213 | 11 ± 1.6 | 15 ± 11 | 12.6 ± 3.3 | 9.6 ± 3.4 | 8.5 ± 2.7 | 6.9 ± 1.9 | 4.0 ± 0.5 | 776.9±227.6^a | – | – | – | – | – | – |
| CC[C@H](C)[C@H](NC(=O)[C@H](Cc1ccccc1)NC(=O)[C@H](C)NC(=O)[C@H](CCCNC(=N)N)NC(=O)[C@H](CCC(N)=O)NC(=O)[C@H](CCCNC(=N)N)NC(=O)[C@H](CCCCNC(=O)COCCOCCNC(=O)CC[C@H](NC(=O)CCCCCCCCCCCCCCCCCCC(=O)O)C(=O)O)NC(=O)[C@H](CCC(=O)O)NC(=O)[C@H](CC(=O)O)NC(=O)[C@H](CC(C)C)NC(=O)[C@H](CC(C)C)NC(=O)[C@@H](NC(=O)[C@H](CO)NC(=O)[C@H](Cc1ccc(O)cc1)NC(=O)[C@H](CC(=O)O)NC(=O)[C@H](CO)NC(=O)[C@@H](NC(=O)[C@](C)(Cc1ccccc1F)NC(=O)[C@@H](NC(=O)CNC(=O)[C@H](CCC(N)=O)NC(=O)C(C)(C)NC(=O)[C@@H](N)Cc1ccc(O)cc1)[C@@H](C)O)[C@@H](C)O)[C@@H](C)CC)C(=O)N[C@@H](CCC(=O)O)C(=O)N[C@@H](Cc1ccc(O)cc1)C(=O)N[C@@H](CC(C)C)C(=O)N[C@@H](CC(C)C)C(=O)N[C@@H](C)C(=O)NCC(=O)NCC(=O)N1CCC[C@H]1C(=O)N[C@@H](CO)C(=O)N[C@@H](CO)C(=O)NCC(=O)N[C@@H](C)C(=O)N1CCC[C@H]1C(=O)N1CCC[C@H]1C(=O)N1CCC[C@H]1C(=O)N[C@@H](CO)C(=O)O [HEC-PT86] | – | – | – | – | – | – | – | – | – | – | – | 13.2 ± 1.4 | 10.3 ± 1.9 | 8.8 ± 1.0 | 7.0 ± 0.8 | 3.9 ± 0.2 | 827.3±70.3^a |
